# From patent publication US10750742B2, “Pesticidally active pyrazole derivatives” (SYNGENTA PARTICIPATIONS AG, priority 2015, dated 2020)
# Like-named read-outs stand apart in the source and are kept apart here.
# How the values were obtained:
# Spodoptera littoralis [1] = test: Comparison: insecticidal activity against Spodoptera littoralis, larvicide L-3, feeding/contact, soybean plants; type: in vivo; settings: 120 h
# Description: (§1) Biological Comparison Data:
# (§2) Compound A and B are disclosed in WO2014/122083 as example (Ic-1) (p. 76) and (lc-2) (p. 82, Table 3). The activities of compounds A and B to treat different pests are compared with the activities of compound 4, 6, 15 and 35 according to the present invention. The tests are carried out at different concentrations (ppm).
# a) Insecticidal Activity Against Spodoptera littoralis (Egyptian Cotton Leaf Worm, Larvicide L-3, Feeding/Contact)
# Soybean plants were sprayed with diluted test solutions in an application chamber. The plants (2 replicates) were infested with 10 L3 larvae 1 day after treatment. Samples were checked 5 days after infestation for mortality, feeding behavior, and growth regulation.
# Thrips tabaci [2] = test: Comparison: insecticidal activity against Thrips tabaci, sunflower leaf discs; type: in vivo; settings: 6 days after infestation; for mortality at 0.05 ppm / mortality at 0.2 ppm / mortality at 0.781 ppm / mortality at 0.8 ppm / mortality at 3 ppm / mortality at 3.12 ppm / mortality at 12.5 ppm / mortality at 50 ppm / mortality at 200 ppm: Thrips tabaci, foliar, 144 h
# Description: as §1, §2
# b) Insecticidal Activity Against Thrips tabaci (Onion Thrips):
# (§3) Sunflower leaf discs were placed on agar in 24-well microtiter plates and sprayed with aqueous test solutions prepared from 10′000 ppm DMSO stock solutions. After drying the leaf discs were infested with a thrips population of mixed ages. The samples were assessed for mortality 6 days after infestation.
# Diabrotica balteata = Diabrotica balteata (corn root worm), maize sprout test; type: in vivo; settings: 96 h, read-out: control (mortality and growth inhibition)
# Description: Diabrotica balteata, (Corn Root Worm)
# Maize sprouts, placed on an agar layer in 24-well microtiter plates were treated with aqueous test solutions prepared from 10′000 ppm DMSO stock solutions by spraying. After drying, the plates were infested with L2 larvae (6 to 10 per well). The samples were assessed for mortality and growth inhibition in comparison to untreated samples 4 days after infestation.
# Tetranychus urticae = Tetranychus urticae (two-spotted spider mite), bean leaf disc test; type: in vivo; settings: foliar, 192 h, read-out: control (mortality on mixed population, mobile stages)
# Description: Tetranychus urticae (Two-Spotted Spider Mite):
# as §3, with “Bean” for “Sunflower”, “discs” for “discs were placed”, “were” for “and”, “mite” for “thrips”, “on mixed population (mobile stages) 8” for “6”
# Thrips tabaci [3] = test: Thrips tabaci (onion thrips), sunflower leaf disc test; type: in vivo; settings: foliar, 144 h, read-out: control (mortality)
# Description: Thrips tabaci (Onion Thrips):
# as §3
# Myzus persicae [4] = test: Myzus persicae (green peach aphid), sunflower leaf disc spray test; type: in vivo; settings: foliar, 144 h
# Description: Myzus persicae (Green Peach Aphid):
# Sunflower leaf discs were placed on agar in a 24-well microtiter plate and sprayed with test solutions at an application rate of 200 ppm. After drying, the leaf discs were infested with an aphid population of mixed ages. After an incubation period of 6 DAT, samples were checked for mortality. The following compounds gave at least 80% mortality of Myzus persicae: compounds 1,2, 3, 4, 5, 6, 11, 12, 15, 17, 18, 19, 20, 23, 24, 25, 26, 27, 30, 32, 33, 34 35, 41, 43, 44, 47, 50, 55, 58, 59, 60, 61, 62, 63, 64, 65 and 66.
# Spodoptera littoralis [5] = test: Spodoptera littoralis (Egyptian cotton leaf worm), cotton leaf disc spray test; type: in vivo; settings: foliar, 72 h, read-out: control (at least one of mortality, anti-feedant effect, growth inhibition); for percent control (mortality, anti-feedant effect or growth inhibition) at 200 ppm: application rate 200 ppm, L1 larvae, 3 days after infestation
# How it was run: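 Cotton leaf discs on agar were sprayed with aqueous dilutions of 10′000 ppm DMSO stocks, dried and infested with five L1 larvae. Mortality, anti-feedant effect and growth inhibition were scored against untreated samples 3 days after infestation. Control = any of these higher than untreated.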
# Myzus persicae [6] = test: Myzus persicae (green peach aphid), sucrose solution / Parafilm test; type: in vivo; settings: 120 h
# How it was run: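 Compound mixed into sucrose solution at 12.5 ppm under stretched Parafilm; aphid-infested pea seedlings set on the membrane and plate inverted so insects feed through it. Mortality assessed 5 days after infestation.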
# Euschistus heros = Euschistus heros (neotropical brown stink bug), soybean leaf test; type: in vivo; settings: 120 h, read-out: effect in at least one of the two categories (mortality or growth inhibition); for percent effect (mortality or growth inhibition) at 200 ppm: application rate 200 ppm, N2 nymphs, 5 days after infestation
# Description: Euschistus heros (Neotropical Brown Stink Bug):
# Soybean leaves on agar in 24-well microtiter plates were sprayed with aqueous test solutions prepared from 10′000 ppm DMSO stock solutions. After drying the leaves were infested with N2 nymphs. The samples were assessed for mortality and growth inhibition in comparison to untreated samples 5 days after infestation.
# Plutella xylostella = Plutella xylostella (diamond back moth), artificial diet test; type: in vivo; settings: 120 h, read-out: control (mortality and growth inhibition)
# Description: Plutella xylostella (Diamond Back Moth):
# 24-well microtiter plates with artificial diet were treated with aqueous test solutions prepared from 10′000 ppm DMSO stock solutions by pipetting. After drying, the plates were infested with L2 larvae (10 to 15 per well). The samples were assessed for mortality and growth inhibition in comparison to untreated samples 5 days after infestation.
# [7] = application rate 200 ppm, L2 larvae, 4 days after infestation
# [8] = application rate 200 ppm, 8 days after infestation
# [9] = application rate 200 ppm, mixed ages, 6 days after infestation
# [10] = application rate 200 ppm, mixed ages, 6 DAT, read-out: mortality
# [11] = test rate of 12 ppm, sucrose solution, 5 days after infestation, read-out: mortality
# [12] = application rate 200 ppm, L2 larvae, 5 days after infestation
# [13] = 12.5 ppm, read-out: Mortality (%)
compound,measurement,setting,value
Cn1nc(OC(F)(F)C(F)C(F)(F)F)c(C(F)(F)F)c1-n1cc(-c2cc(Cl)c(Cl)c(C(=O)NC3CC3)c2)cn1 (stereo not shown),melting point,,67 to 70 °C
"Cn1nc(C(F)(F)C(F)(F)F)c(C(F)(F)F)c1-n1cc(-c2ccc(Cl)c(C(=O)NC3(C#N)CC3)c2)cn1 [B, reference compound]",mortality at 0.2 ppm,Spodoptera littoralis [1],20%
same,mortality at 0.8 ppm,Spodoptera littoralis [1],75%
same,mortality at 3 ppm,Spodoptera littoralis [1],100%
same,mortality at 12.5 ppm,Spodoptera littoralis [1],100%
same,Mortality (%),Thrips tabaci [2]; 12.5 ppm,100%
same,mortality at 0.05 ppm,Thrips tabaci [2],0%
same,mortality at 0.2 ppm,Thrips tabaci [2],25%
same,mortality at 0.781 ppm,Thrips tabaci [2],0%
same,mortality at 0.8 ppm,Thrips tabaci [2],90%
same,mortality at 3 ppm,Thrips tabaci [2],100%
same,mortality at 3.12 ppm,Thrips tabaci [2],25%
same,mortality at 12.5 ppm,Thrips tabaci [2]; 12.5 ppm,90%
same,mortality at 50 ppm,Thrips tabaci [2],100%
same,mortality at 200 ppm,Thrips tabaci [2],100%
Cn1nc(OC(F)(F)C(F)C(F)(F)F)c(C(F)(F)F)c1-n1cc(-c2ccc(Cl)c(C(=O)NC3CC3)c2)cn1 (stereo not shown) [compound 6],mortality at 200 ppm,Diabrotica balteata; [7],≥ 80%
same,mortality at 200 ppm,Tetranychus urticae; [8],≥ 80%
same,mortality at 200 ppm,Thrips tabaci [3]; [9],≥ 80%
same,mortality at 200 ppm,Myzus persicae [4]; [10],≥ 80%
same,mortality at 0.2 ppm,"Spodoptera littoralis [1]; 0.2 ppm, L3 larvae, 5 days after infestation, read-out: Mortality (%)",0%
same,mortality at 0.8 ppm,"Spodoptera littoralis [1]; 0.8 ppm, L3 larvae, 5 days after infestation, read-out: Mortality (%)",0%
same,mortality at 3 ppm,"Spodoptera littoralis [1]; 3.0 ppm, L3 larvae, 5 days after infestation, read-out: Mortality (%)",100%
same,mortality at 12.5 ppm,"Spodoptera littoralis [1]; 12.5 ppm, L3 larvae, 5 days after infestation, read-out: Mortality (%)",100%
same,"percent control (mortality, anti-feedant effect or growth inhibition) at 200 ppm",Spodoptera littoralis [5],≥ 80%
same,mortality at 12 ppm,Myzus persicae [6]; [11],≥ 80%
same,percent effect (mortality or growth inhibition) at 200 ppm,Euschistus heros,≥ 80%
same,mortality at 200 ppm,Plutella xylostella; [12],≥ 80%
Cn1nc(OC(F)C(F)(F)C(F)(F)F)c(C(F)(F)F)c1-n1cc(-c2ccc(Cl)c(C(=O)NC3(C#N)CC3)c2)cn1 (stereo not shown) [compound 4],mortality at 200 ppm,Diabrotica balteata; [7],≥ 80%
same,mortality at 200 ppm,Tetranychus urticae; [8],≥ 80%
same,mortality at 200 ppm,Thrips tabaci [3]; [9],≥ 80%
same,mortality at 200 ppm,Myzus persicae [4]; [10],≥ 80%
same,"percent control (mortality, anti-feedant effect or growth inhibition) at 200 ppm",Spodoptera littoralis [5],≥ 80%
same,mortality at 12 ppm,Myzus persicae [6]; [11],≥ 80%
same,percent effect (mortality or growth inhibition) at 200 ppm,Euschistus heros,≥ 80%
same,mortality at 200 ppm,Plutella xylostella; [12],≥ 80%
same,mortality at 0.05 ppm,Thrips tabaci [2]; read-out: Mortality (%),65%
same,mortality at 0.2 ppm,Thrips tabaci [2]; read-out: Mortality (%),90%
same,mortality at 0.8 ppm,Thrips tabaci [2]; read-out: Mortality (%),100%
same,mortality at 3 ppm,Thrips tabaci [2]; read-out: Mortality (%),100%
same,mortality at 12.5 ppm,Thrips tabaci [2]; [13],100%
Cn1nc(OC(F)(F)C(F)C(F)(F)F)c(C(F)(F)F)c1-n1cc(-c2cccc(C(=O)NC3(C#N)CC3)c2F)cn1 (stereo not shown),melting point,,59 to 61 °C
Cn1nc(OC(F)(F)C(F)C(F)(F)F)c(C(F)(F)F)c1-n1cc(-c2cc(C(=O)NC3CC3)c(Cl)cc2F)cn1 (stereo not shown),melting point,,68 to 70 °C
Cn1nc(OC(F)(F)C(F)(F)C(F)(F)F)c(C(F)(F)F)c1-n1cc(-c2ccc(Cl)c(C(=O)NC3(C#N)CC3)c2)cn1 [compound 35],mortality at 200 ppm,Diabrotica balteata,≥ 80%
same,mortality at 200 ppm,Tetranychus urticae,≥ 80%
same,mortality at 200 ppm,Thrips tabaci [3],≥ 80%
same,mortality at 200 ppm,Myzus persicae [4],≥ 80%
same,mortality at 0.2 ppm,Spodoptera littoralis [1],0%
same,mortality at 0.8 ppm,Spodoptera littoralis [1],100%
same,mortality at 3 ppm,Spodoptera littoralis [1],100%
same,mortality at 12.5 ppm,Spodoptera littoralis [1],100%
same,mortality at 200 ppm,Spodoptera littoralis [5],≥ 80%
same,mortality at 12 ppm,Myzus persicae [6],≥ 80%
same,percent control (mortality or growth inhibition) at 200 ppm,Euschistus heros,≥ 80%
same,mortality at 200 ppm,Plutella xylostella,≥ 80%
CN1N=C(OC(F)(F)C(F)C(F)(F)F)C(C(F)(F)F)C1n1cc(-c2cc(F)c(Cl)c(C(=O)NC3CC3)c2)cn1 (stereo not shown),melting point,,114 to 116 °C
Cn1nc(OC(F)(F)C(F)C(F)(F)F)c(C(F)(F)F)c1-n1cc(-c2cc(Cl)c(Cl)c(C(=O)NC3(C#N)CC3)c2)cn1 (stereo not shown),melting point,,162 to 165 °C
Cn1nc(OC(F)(F)C(F)OC(F)(F)F)c(C(F)(F)F)c1-n1cc(-c2ccc(Cl)c(C(=O)NC3(C#N)CC3)c2)cn1 (stereo not shown) [compound 15],mortality at 200 ppm,Diabrotica balteata; [7],≥ 80%
same,mortality at 200 ppm,Tetranychus urticae; [8],≥ 80%
same,mortality at 200 ppm,Thrips tabaci [3]; [9],≥ 80%
same,mortality at 200 ppm,Myzus persicae [4]; [10],≥ 80%
same,"percent control (mortality, anti-feedant effect or growth inhibition) at 200 ppm",Spodoptera littoralis [5],≥ 80%
same,mortality at 12 ppm,Myzus persicae [6]; [11],≥ 80%
same,percent effect (mortality or growth inhibition) at 200 ppm,Euschistus heros,≥ 80%
same,mortality at 200 ppm,Plutella xylostella; [12],≥ 80%
same,mortality at 0.781 ppm,Thrips tabaci [2]; read-out: Mortality (%),0%
same,mortality at 3.12 ppm,Thrips tabaci [2]; read-out: Mortality (%),90%
same,mortality at 12.5 ppm,Thrips tabaci [2]; [13],90%
same,mortality at 50 ppm,Thrips tabaci [2]; read-out: Mortality (%),100%
same,mortality at 200 ppm,Thrips tabaci [2]; read-out: Mortality (%),100%
"Cn1nc(C(F)(F)C(F)(F)F)c(C(F)(F)F)c1-n1cc(-c2ccc(Cl)c(C(=O)NC3CC3)c2)cn1 [A, reference compound]",mortality at 0.2 ppm,Spodoptera littoralis [1],0%
same,mortality at 0.8 ppm,Spodoptera littoralis [1],15%
same,mortality at 3 ppm,Spodoptera littoralis [1],55%
same,mortality at 12.5 ppm,Spodoptera littoralis [1],85%
Cn1nc(OCC(F)(F)F)c(C(F)(F)F)c1-n1cc(-c2ccc(Cl)c(C(=O)NC3CC3)c2)cn1 [compound 2],mortality at 200 ppm,Diabrotica balteata; [7],≥ 80%
same,mortality at 200 ppm,Tetranychus urticae; [8],≥ 80%
same,mortality at 200 ppm,Thrips tabaci [3]; [9],≥ 80%
same,mortality at 200 ppm,Myzus persicae [4]; [10],≥ 80%
same,"percent control (mortality, anti-feedant effect or growth inhibition) at 200 ppm",Spodoptera littoralis [5],≥ 80%
same,mortality at 12 ppm,Myzus persicae [6]; [11],≥ 80%
same,percent effect (mortality or growth inhibition) at 200 ppm,Euschistus heros,≥ 80%
same,mortality at 200 ppm,Plutella xylostella; [12],≥ 80%
CN1N=C(OC(F)(F)C(F)C(F)(F)F)C(C(F)(F)F)C1n1cc(-c2cc(F)c(Cl)c(C(=O)NC3(C#N)CC3)c2)cn1 (stereo not shown),melting point,,82 to 84 °C
